The text below walks through data of ChEMBL document CHEMBL1201862, “PubChem BioAssay data set” (2004).

Holding throughout (experiment): NCI-60 cell line screen, 48 h
The test system of assay [1] is M14.
Assay [2] has as its system IGROV-1.
For assay [3], the system named is NCI/ADR-RES.
Assay [4] concerns A549.
For assay [5], the system named is Hs-578T.
Assay [6] concerns UACC-257.
The test system of assay [7] is SR.
Assay [8] has as its system BT-549.
Assay [9] concerns SF-268.
In assay [10] the test system is UACC-62.
Assay [11] concerns NCI-H522.
The test system of assay [12] is HCT-15.
Assay [13] deals with COLO 205.
The test system of assay [14] is SNB-19.
Assay [15] has as its system Malme-3M.
Assay [16] relates to SW-620.
In assay [17] the test system is NCI-H226.
Assay [18] relates to SF-295.
For assay [19], the system named is MDA-N.
Assay [20] relates to MDA-MB-435.

SMILES strings stand for the structures.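 1) Cells in 96-well plates. 2) Compound, 48 h, 5 concentrations. 3) Linear interpolation between surrounding doses. 4) Unreached endpoint = highest concentration. GI50 is the concentration that inhibits growth by half.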 Activity calls are given as the source filed them. No stated cut-off is given here; in the data, active = GI50 up to about 1.1 µM and inactive = higher. Bounds are passed on as bounds.

Turning to `Nc1cccc2cc(Cl)cnc12`, the GI50 in [1] is > 100 µM (inactive); in [2] it was > 100 µM (inactive); in [3], > 100 µM (inactive); in assay [4], > 100 µM (inactive); in [5] it was 36.3 µM (inactive); in assay [6], > 100 µM (inactive). For the same compound, the GI50 in assay [7] was > 100 µM (inactive); in assay [8], > 100 µM (inactive); in [9], > 100 µM (inactive); in assay [10] it was 56.8 µM (inactive); in assay [11] it was > 100 µM (inactive); in assay [12], more than 100 µM. Besides, the GI50 in assay [13], in [14], in assay [15], in [16], in assay [17] and in [18] was > 100 µM (inactive) in each case. The GI50 in [19] and in [20] was > 100 µM (inactive) in each case.

`COc1cc2cc(C(=O)N3CC(CCl)c4ccc([N+](C)(C)Cc5ccc([N+](=O)[O-])cc5)cc43)[nH]c2c(OC)c1OC` (stereo not given): the GI50 was 5.68 µM (inactive) in assay [1]; 1.97 µM (inactive) in assay [2]; 1.71 µM (inactive) in assay [3]; 1.8 µM (inactive) in [4]; 9.62 µM (inactive) in assay [5]; 1.83 µM (inactive) in assay [6]. Moreover, the GI50 is 0.363 µM (active) in assay [7]; 5.74 µM (inactive) in assay [8]; 3.39 µM (inactive) in [9]; 2.13 µM (inactive) in assay [10]; 0.552 µM (active) in assay [11]; 3.2 µM in assay [12]. Moreover, the GI50 in assay [13] was 3.25 µM (inactive); in assay [14], 8.53 µM (inactive); in assay [15], 2.48 µM (inactive); in assay [16] it was 1.5 µM (inactive); in [17], 2.82 µM (inactive); in assay [18], 2.58 µM (inactive). The GI50 in assay [19] was 3.53 µM (inactive); in [20], 4.54 µM (inactive).

For the compound `O=C(O)CN1C(=O)c2ccc(NC(=O)C(=O)O)cc2S1(=O)=O`, the GI50 in [1], in [2], in [3], in assay [4], in assay [5] and in assay [6] was > 100 µM (inactive) each time. Further, the GI50 in [7] is > 100 µM (inactive); in assay [8] it was > 100 µM (inactive); in [9] it was > 100 µM (inactive); in assay [10] it was > 100 µM (inactive); in [11] it was > 100 µM (inactive); in [12] it was more than 100 µM. Besides, the GI50 in [13], in [14], in [15], in assay [16], in [17] and in assay [18] was > 100 µM (inactive) in each case. Besides, the GI50 in assay [19] and in [20] was > 100 µM (inactive) in each case.

For the compound `CC(C)(O)CCc1ccc(O)c2c(=O)c3c(O)c4c(cc3oc12)O[C@H]1OC=C[C@@]41O` [AUSTOCYSTIN D], the GI50 in [1] was 0.411 µM (active); in assay [2], < 0.01 µM (active); in assay [3] it was < 0.01 µM (active); in [4], 0.726 µM (active); in assay [5] it was 10.2 µM (inactive); in [6], 0.0184 µM (active). Also, the GI50 in [7] is 1.23 µM (inactive); in assay [8] it was 9.06 µM (inactive); in assay [9], 0.056 µM (active); in [10], < 0.01 µM (active); in assay [11], 5.27 µM (inactive); in assay [12], less than 0.01 µM. The GI50 was 0.0109 µM (active) in assay [13]; 0.148 µM (active) in assay [14]; 1.08 µM (active) in [15]; < 0.01 µM (active) in assay [16]; < 0.01 µM (active) in [17]; 8.87 µM (inactive) in [18]. Besides, the GI50 in [19] and in [20] was < 0.01 µM (active) in each case.

Regarding `CCOC(=O)Nc1nc(-c2ccccc2)c(C)s1`, the GI50 in [1] is > 100 µM (inactive); in [2] it was 44.2 µM (inactive); in assay [3], 59 µM (inactive); in assay [4], > 100 µM (inactive); in assay [5] it was > 100 µM (inactive); in assay [6] it was > 100 µM (inactive). Also, the GI50 in [7] is 49.9 µM (inactive); in assay [8] it was 53.8 µM (inactive); in assay [9] it was > 100 µM (inactive); in [10], > 100 µM (inactive); in assay [11], 28 µM (inactive); in [12], 40.9 µM. The GI50 in assay [13] was 96.6 µM (inactive); in assay [14], > 100 µM (inactive); in assay [15], > 100 µM (inactive); in assay [16], > 100 µM (inactive); in assay [17], > 100 µM (inactive); in assay [18], > 100 µM (inactive). Besides, the GI50 in [19] and in assay [20] was > 100 µM (inactive) throughout.

As to `NS(=O)(=O)c1ccc(NC(=O)Nc2ccccc2F)cc1`, the GI50 is 82.4 µM (inactive) in assay [1]; > 100 µM (inactive) in assay [2]; > 100 µM (inactive) in assay [3]; > 100 µM (inactive) in assay [4]; > 100 µM (inactive) in assay [5]; > 100 µM (inactive) in [6]. Besides, the GI50 is > 100 µM (inactive) in [7]; > 100 µM (inactive) in [8]; > 100 µM (inactive) in [9]; 72.3 µM (inactive) in [10]; > 100 µM (inactive) in assay [11]; more than 100 µM in assay [12]. The GI50 in [13] was > 100 µM (inactive); in [14] it was > 100 µM (inactive); in [15] it was > 100 µM (inactive); in assay [16], > 100 µM (inactive); in [17], > 100 µM (inactive); in assay [18] it was 0.243 µM (active). Moreover, the GI50 in [19] and in assay [20] was > 100 µM (inactive) each time.

As for `C/C(=N\Nc1nc2ccccc2s1)c1cc(C)ncn1`, the GI50 was 0.474 µM (active) in [1]; 0.824 µM (active) in assay [2]; 0.371 µM (active) in assay [3]; 2.25 µM (inactive) in assay [4]; 0.738 µM (active) in [5]; 0.29 µM (active) in [6]. The GI50 in assay [7] is 0.259 µM (active); in assay [8], 6.79 µM (inactive); in assay [9], 0.318 µM (active); in [10], 0.979 µM (active); in assay [11] it was 0.07 µM (active); in [12], 0.394 µM. Moreover, the GI50 in assay [13] was 0.0543 µM (active); in assay [14], 6.68 µM (inactive); in assay [15], 0.372 µM (active); in assay [16], 0.352 µM (active); in [17], 0.427 µM (active); in assay [18] it was 2.73 µM (inactive). For the same compound, the GI50 is 3.98 µM (inactive) in [19] and 2.81 µM (inactive) in assay [20].

As for `COc1ccc2c(c1)[C@@]13CCN4CC5=CCO[C@H]6CC(=O)N2[C@H]1[C@H]6[C@H]5C[C@H]43`, the GI50 in [1] was > 100 µM (inactive); in assay [2] it was 34.9 µM (inactive); in assay [3], 47.2 µM (inactive); in assay [4], > 100 µM (inactive); in [5] it was 33.7 µM (inactive); in assay [6] it was > 100 µM (inactive). The GI50 in assay [7] is 27.5 µM (inactive); in [8] it was > 100 µM (inactive); in assay [9], > 100 µM (inactive); in [10], > 100 µM (inactive); in [11] it was 72.3 µM (inactive); in assay [12], more than 100 µM. Also, the GI50 in [13] is 84.9 µM (inactive); in [14], > 100 µM (inactive); in assay [15] it was 90.4 µM (inactive); in assay [16] it was > 100 µM (inactive); in assay [17], 0.178 µM (active); in [18], 70 µM (inactive). For the same compound, the GI50 in assay [19] and in [20] was > 100 µM (inactive) throughout.
